{"source": "ChEMBL document CHEMBL3638654", "about": "“5-HT3 receptor modulators, methods of making, and use thereof” (2015)", "biological_target": "T1, 5-hydroxytryptamine receptor 3A (Homo sapiens, UniProt P46098)", "T1 sequence (P46098 whole entry)": "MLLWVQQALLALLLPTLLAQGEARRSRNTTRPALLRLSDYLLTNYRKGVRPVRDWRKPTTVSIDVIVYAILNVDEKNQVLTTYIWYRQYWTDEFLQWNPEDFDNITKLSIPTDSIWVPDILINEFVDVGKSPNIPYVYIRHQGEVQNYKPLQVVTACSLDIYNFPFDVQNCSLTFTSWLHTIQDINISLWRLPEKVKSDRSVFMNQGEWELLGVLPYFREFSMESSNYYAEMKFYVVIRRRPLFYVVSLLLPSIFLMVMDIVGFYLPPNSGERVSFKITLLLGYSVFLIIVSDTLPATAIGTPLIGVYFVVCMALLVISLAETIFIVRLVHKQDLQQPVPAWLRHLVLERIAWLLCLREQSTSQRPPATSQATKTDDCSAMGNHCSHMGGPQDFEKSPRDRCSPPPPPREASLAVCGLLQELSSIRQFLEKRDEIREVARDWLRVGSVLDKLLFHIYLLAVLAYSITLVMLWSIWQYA", "test": "Radioligand Binding Assay: The relative affinity of the various compounds for the human 5-HT3 receptor was measured in a radioligand binding assay, using a scintillation proximity assay (SPA) format. Test compounds were dissolved to 10 mM in 100% DMSO, then serially diluted at 10x assay concentrations in 100% DMSO in 96-well polypropylene plates and further diluted to 4x assay concentrations with the assay buffer. Samples were incubated in 50 mM Tris-HCl, pH 7.5, 3 mM MgCl2, 1 mM EDTA and 10% DMSO with 10 nM [9-methyl-3H]BRL-43694 (Perkin Elmer), 3 ug of human 5-HT3 receptor membranes (Perkin Elmer) and 0.5 mg/mL SPA beads (WGA PVT, Amersham Biosciences) in a final volume of 0.2 mL. Binding reactions were set up in wells of PicoPlates-96 (Perkin Elmer) by adding consecutively 50 uL of each competing compound or buffer, SPA beads, the radioligand and 5-HT3 receptor membranes. After an overnight incubation at room temperature on a Nutator mixer, plates were centrifuged for 15 min at 1,500 rpm.", "note": "“And” between values parts separate entries of the source, which are not always exact repeats. Equal values may be shown once."}
{"compound": "O=C1c2cccc3[nH]nc(c23)CN1CC1CN2CCC1CC2", "note": "(configuration not stated)", "values": [{"measurement": "Ki", "result": "217 nM and 24 nM"}]}
{"compound": "O=C1c2cccc3[nH]nc(c23)CCN1CC1CN2CCC1CC2", "note": "(configuration not stated)", "values": [{"measurement": "Ki", "result": "579 nM and 241 nM"}]}
